These results are taken from PubChem BioAssay AID330 (DTP/NCI, 2004).

Where “and” joins values, the source holds several entries; their conditions need not be identical. Equal values may be shown once. Inconclusive results and toxic doses are left out.

This test deals with P388 leukemia ip, CD2F1 mice, survival T/C. The experiment in a line: NCI In Vivo Anticancer Drug Screen. Data for tumor model P388 Leukemia (intraperitoneal) in CD2F1 (CDF1) mice. The following applies: endpoint: median survival time, higher = longer survival. Put shortly: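 Mice carrying the transplanted tumor received test compound or vehicle. Survival was recorded in each group, and the value is the treated-group measurement divided by that of the vehicle-treated control group.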

[1] abbreviates: dose: 100.0 mg/kg/injection, schedule: Q04DX003 (ip), vehicle: saline with Tween-80.
[2] abbreviates: dose: 100.0 mg/kg/injection, schedule: Q01DX009 (ip), vehicle: saline with Tween-80.
Setting [3] is: dose: 200.0 mg/kg/injection, schedule: Q01DX009 (ip), vehicle: saline with Tween-80.
The mark [4] stands for this setting: dose: 60.0 mg/kg/injection, schedule: Q01DX005 (ip), vehicle: Klucel (hydroxypropylcellulose) (HPC).
Where [5] appears, read: dose: 120.0 mg/kg/injection, schedule: Q01DX005 (ip), vehicle: Klucel (hydroxypropylcellulose) (HPC).
[6] abbreviates: dose: 240.0 mg/kg/injection, schedule: Q01DX005 (ip), vehicle: Klucel (hydroxypropylcellulose) (HPC).
The mark [7] stands for this setting: dose: 50.0 mg/kg/injection, schedule: Q01DX005 (ip), vehicle: saline with Tween-80.
[8] abbreviates: dose: 100.0 mg/kg/injection, schedule: Q01DX005 (ip), vehicle: saline with Tween-80.
Setting [9] is: dose: 200.0 mg/kg/injection, schedule: Q01DX005 (ip), vehicle: saline with Tween-80.
Where [10] appears, read: dose: 60.0 mg/kg/injection, schedule: Q01DX005 (ip), vehicle: saline.
The mark [11] stands for this setting: dose: 120.0 mg/kg/injection, schedule: Q01DX005 (ip), vehicle: saline.
Where [12] appears, read: dose: 240.0 mg/kg/injection, schedule: Q01DX005 (ip), vehicle: saline.
[13] abbreviates: dose: 60.0 mg/kg/injection, schedule: Q01DX005 (ip), vehicle: saline with Tween-80.
Where [14] appears, read: dose: 120.0 mg/kg/injection, schedule: Q01DX005 (ip), vehicle: saline with Tween-80.
[15] abbreviates: dose: 240.0 mg/kg/injection, schedule: Q01DX005 (ip), vehicle: saline with Tween-80.

As for `COC(=O)/C=C/c1c(=O)c(C(=O)OC)cn2cnc3nc[nH]c3c12`, the T/C runs as follows: under setting [1], 97 % of control; (dose: 200.0 mg/kg/injection, schedule: Q04DX003 (ip), vehicle: saline with Tween-80) 93 % of control; (dose: 400.0 mg/kg/injection, schedule: Q04DX003 (ip), vehicle: saline with Tween-80) 98 % of control.

`Nc1cc(Nc2cccc(Cl)c2)nc(N)n1`: the T/C reads like this: (dose: 50.0 mg/kg/injection, schedule: Q04DX003 (ip), vehicle: saline with Tween-80) 87 % of control; under setting [1], 91 % of control.

Take `COc1nc2c(=O)[nH]c(N)nc2n1C1OC(CO)C(O)C1O` (stereo unspecified): the T/C is 98 % of control under setting [2]; 113 % of control under setting [3]; 116 % of control (dose: 400.0 mg/kg/injection, schedule: Q01DX009 (ip), vehicle: saline with Tween-80).

Turning to `Nc1ccccc1OCCCn1cc(-c2ccc(Cl)c(Cl)c2)c(N)nc1=O`, the T/C is 103 % of control (dose: 7.5 mg/kg/injection, schedule: Q01DX005 (ip), vehicle: Klucel (hydroxypropylcellulose) (HPC)); 96 % of control (dose: 15.0 mg/kg/injection, schedule: Q01DX005 (ip), vehicle: Klucel (hydroxypropylcellulose) (HPC)); 93 % of control (dose: 30.0 mg/kg/injection, schedule: Q01DX005 (ip), vehicle: Klucel (hydroxypropylcellulose) (HPC)).

In the case of `CC(=O)N1CN(C)N(C)C1`, the T/C by setting is: under setting [4], 98 % of control; under setting [5], 91 % of control; under setting [6], 100 % of control.

On to `O=C(O)Cc1csc(=S)n1Cc1ccccc1`, for which the T/C is 100 % of control under setting [7], 102 % of control under setting [8] and 90 % of control under setting [9].

For `C/C(=N\O)C1CC2C=C(C#N)C1N(Cc1ccccc1)C2` (stereo unspecified), the T/C was 96 % of control (dose: 8.75 mg/kg/injection, schedule: Q01DX005 (ip), vehicle: Klucel (hydroxypropylcellulose) (HPC)); 93 % of control (dose: 17.5 mg/kg/injection, schedule: Q01DX005 (ip), vehicle: Klucel (hydroxypropylcellulose) (HPC)); 123 % of control (dose: 35.0 mg/kg/injection, schedule: Q01DX005 (ip), vehicle: Klucel (hydroxypropylcellulose) (HPC)).

For `O=c1[nH]c2ccccc2c(Oc2ccccc2)c1I`, the T/C by setting is: under setting [4], 89 % of control; under setting [5], 92 % of control; under setting [6], 101 % of control.

For `O=C(O)C(O)C(F)(F)C(F)(F)C(F)(F)C(F)(F)C(O)C(=O)O` (stereo unspecified), the T/C reads like this: under setting [10], 93 % of control; under setting [11], 93 % of control; under setting [12], 86 % of control.

Regarding `Clc1ccc(N=NN2CN3CN(C2)CN(N=Nc2ccc(Cl)cc2)C3)cc1`, the T/C is 94 % of control (dose: 100.0 mg/kg/injection, schedule: Q04DX002 (ip), vehicle: Klucel (hydroxypropylcellulose) (HPC)); 99 % of control (dose: 200.0 mg/kg/injection, schedule: Q04DX002 (ip), vehicle: Klucel (hydroxypropylcellulose) (HPC)); 91 % of control (dose: 400.0 mg/kg/injection, schedule: Q04DX002 (ip), vehicle: Klucel (hydroxypropylcellulose) (HPC)).

As for `CN1CCO[Si](C)(C)C[Si](C)(C)OCC1`, the T/C reads like this: under setting [10], 103 % of control; under setting [11], 102 % of control; under setting [12], 105 % of control.

As to `CCN(CC)CCCCCCCCOC(=O)c1cc(OC)c(OC)c(OC)c1`, the T/C is 101 % of control (dose: 12.5 mg/kg/injection, schedule: Q01DX005 (ip), vehicle: saline); 97 % of control (dose: 25.0 mg/kg/injection, schedule: Q01DX005 (ip), vehicle: saline); 96 % of control (dose: 50.0 mg/kg/injection, schedule: Q01DX005 (ip), vehicle: saline); 99 % of control under setting [10].

For `CC(=O)c1ccc(Cl)c(-n2cccc2)c1`, the T/C runs as follows: (dose: 50.0 mg/kg/injection, schedule: Q01DX005 (ip), vehicle: Klucel (hydroxypropylcellulose) (HPC)) 95 % of control; (dose: 100.0 mg/kg/injection, schedule: Q01DX005 (ip), vehicle: Klucel (hydroxypropylcellulose) (HPC)) 101 % of control.

As to `CC1CCCC/C1=N\N(C)C` (stereo unspecified), the T/C by setting is: under setting [13], 100 % of control; under setting [14], 94 % of control.

As for `[S-]c1n[n+](-c2ccccc2)c(-c2ccccc2)s1`, the T/C is, setting by setting: (dose: 50.0 mg/kg/injection, schedule: Q01DX009 (ip), vehicle: saline with Tween-80) 100 % of control; under setting [2], 100 % of control; under setting [3], 93 % of control.

In the case of `C=CC(Br)CCCBr` (stereo unspecified), the T/C is, setting by setting: (dose: 12.5 mg/kg/injection, schedule: Q04DX002 (ip), vehicle: saline with Tween-80) 106 % of control; (dose: 25.0 mg/kg/injection, schedule: Q04DX002 (ip), vehicle: saline with Tween-80) 112 % of control; (dose: 50.0 mg/kg/injection, schedule: Q04DX002 (ip), vehicle: saline with Tween-80) 101 % of control; (dose: 100.0 mg/kg/injection, schedule: Q04DX002 (ip), vehicle: saline with Tween-80) 104 % of control.

As for `CC1(C)CC(=O)C(C(c2ccc3c(c2)OCO3)N2CCOCC2)C(=O)C1` (stereo unspecified), the T/C by setting is: under setting [4], 117 % of control; under setting [5], 109 % of control.

`COc1ccc(Cc2coc3ccccc3c2=O)cc1`: the T/C runs as follows: under setting [13], 102 % of control; under setting [14], 92 % of control; under setting [15], 100 % of control.

For the compound `C=CCNC(=S)N/N=C(/c1ccccn1)C(C)C`, the T/C under setting [7] is 103 % of control and the T/C under setting [8] was 109 % of control.

`O=[N+]([O-])c1ccc(/C=C/C=C/c2ccc(Cl)c(S(=O)(=O)F)c2)c(Cl)c1`: the T/C is 95 % of control (dose: 100.0 mg/kg/injection, schedule: Q01DX009 (ip), vehicle: saline sonified); 95 % of control (dose: 200.0 mg/kg/injection, schedule: Q01DX009 (ip), vehicle: saline sonified); 91 % of control (dose: 400.0 mg/kg/injection, schedule: Q01DX009 (ip), vehicle: saline sonified).

In the case of `O=C1C2CC3OC3CC2C(=O)N1CCN1C(=O)C2CC3OC3CC2C1=O` (stereo unspecified), the T/C is 100 % of control under setting [7], 104 % of control under setting [8] and 104 % of control under setting [9].

For `Cc1c2ccncc2c(CNCCO)c2c3ccccc3n(C)c12`, the T/C (dose: 5.0 mg/kg/injection, schedule: Q01DX005 (ip), vehicle: saline) was 110 % of control; the T/C (dose: 10.0 mg/kg/injection, schedule: Q01DX005 (ip), vehicle: saline) was 108 % of control; the T/C (dose: 20.0 mg/kg/injection, schedule: Q01DX005 (ip), vehicle: saline) was 110 % of control.

With `CC1=C(C(N)=O)C(c2ccccc2)NC(=S)N1` (stereo unspecified), the T/C is, setting by setting: (dose: 3.12 mg/kg/injection, schedule: Q01DX005 (ip), vehicle: Klucel (hydroxypropylcellulose) (HPC)) 101 % of control; (dose: 6.25 mg/kg/injection, schedule: Q01DX005 (ip), vehicle: Klucel (hydroxypropylcellulose) (HPC)) 95 % of control; (dose: 12.5 mg/kg/injection, schedule: Q01DX005 (ip), vehicle: Klucel (hydroxypropylcellulose) (HPC)) 100 % of control; (dose: 25.0 mg/kg/injection, schedule: Q01DX005 (ip), vehicle: Klucel (hydroxypropylcellulose) (HPC)) 100 % of control and 101 % of control (2×).

Take `C[N+]12CCO[B-]1(c1ccccc1)OCC2` (stereo unspecified): the T/C by setting is: under setting [10], 108 % of control; under setting [11], 100 % of control; under setting [12], 100 % of control.

For the compound `Cn1c(=S)[nH]c2scc(-c3ccccc3)c2c1=O`, the T/C under setting [13] was 87 % of control and the T/C under setting [15] is 96 % of control.

On to `C=C1C(=O)OC2/C=C(\C)CC/C=C(\C)C(OC(C)=O)C(OC(=O)C3(C)OC3C)C12O` (stereo unspecified), for which the T/C (dose: 12.5 mg/kg/injection, schedule: Q01DX009 (ip), vehicle: Klucel (hydroxypropylcellulose) (HPC)) was 105 % of control; the T/C (dose: 25.0 mg/kg/injection, schedule: Q01DX009 (ip), vehicle: Klucel (hydroxypropylcellulose) (HPC)) was 115 % of control; the T/C (dose: 50.0 mg/kg/injection, schedule: Q01DX009 (ip), vehicle: Klucel (hydroxypropylcellulose) (HPC)) is 115 % of control; the T/C (dose: 100.0 mg/kg/injection, schedule: Q01DX009 (ip), vehicle: Klucel (hydroxypropylcellulose) (HPC)) was 94 % of control.
